From patent US8288552B2, “Dihydropyridone amidesas P2X7 modulators” (Roche Palo Alto LLC, priority 2008, dated 2012)

Molecular target: T1, P2X7 (UniProt Q99572)
T1 sequence (Q99572 1-595): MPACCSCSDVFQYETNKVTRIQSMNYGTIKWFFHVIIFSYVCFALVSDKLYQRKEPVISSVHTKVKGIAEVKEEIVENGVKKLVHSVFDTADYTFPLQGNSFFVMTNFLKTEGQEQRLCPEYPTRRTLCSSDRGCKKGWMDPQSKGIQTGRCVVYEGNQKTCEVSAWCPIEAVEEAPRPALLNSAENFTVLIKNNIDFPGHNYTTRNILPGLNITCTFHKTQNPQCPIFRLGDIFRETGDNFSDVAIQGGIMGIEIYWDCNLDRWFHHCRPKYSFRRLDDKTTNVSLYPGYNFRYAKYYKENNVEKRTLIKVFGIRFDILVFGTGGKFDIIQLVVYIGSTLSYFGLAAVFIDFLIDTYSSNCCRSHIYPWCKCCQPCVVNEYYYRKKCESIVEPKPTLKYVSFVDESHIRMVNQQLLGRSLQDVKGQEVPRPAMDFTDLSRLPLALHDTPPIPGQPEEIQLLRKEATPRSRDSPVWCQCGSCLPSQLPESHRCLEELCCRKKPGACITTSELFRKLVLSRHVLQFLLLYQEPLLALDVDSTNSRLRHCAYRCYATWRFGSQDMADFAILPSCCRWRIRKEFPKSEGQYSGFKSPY
Experiment: P2X7 pKi of Table 1
Assay type: cell-based
Procedure: Intracellular Calcium Flux (FLIPR) Assay
Compound and Reagent Preparation
Stock solutions of compounds were prepared from powders as a 10 mM DMSO stock solution. These solutions were stored at RT during the two week period of these experiments to prevent freeze-thaw of the DMSO stocks. The DMSO stocks were added to the appropriate assay buffer at a concentration of 10 μM, and then diluted serially to the final concentrations that were tested. […] The aqueous solutions of compounds as well as ATP (Sigma A7699) and BzATP (Sigma B6396) were prepared fresh for each day of experiment.
1321N1 cells stably expressing the full length human P2X7 gene (1321N1-hP2X7) and HEK293 cells stably expressing the full length rat P2X7 gene (HEK293-rP2X7) were obtained from the Roche Cell Culture Facility. 1321N1-hP2X7 cells were grown in Dulbecco's Modified Eagle's Medium (DMEM) high glucose supplemented with 10% FBS and 250 μg/mL G418. HEK293-rP2X7 cells were grown in DMEM/F-12 supplemented with 10% FBS, 1 mM CaCl2, 2 mM MgCl2, 2 mM L-Glutamine and 500 μg/ml G418. Cells were split such that they never became >70% confluent.
Intracellular Calcium Flux (FLIPR)
On the day prior to the experiment, 1321N1-hP2X7 or HEK293-rP2X7 cells were released into suspension with calcium-free PBS+Versene and washed by centrifugation with calcium-free PBS to remove the Versene. Cells were resuspended in growth medium at a density of 2.5×10^5 cells/mL and seeded into black walled, clear bottom 96 well plates (50,000 cells/well) approximately 18 hr prior to intracellular calcium flux experiments.
On the day of the experiment, plates were washed with FLIPR buffer (calcium- and magnesium-free Hank's Balanced Salt Solution (HBSS) supplemented with 10 mM Hepes, 2.5 mM probenecid and 2 mM calcium chloride) using a BIO-TEK 96 channel plate washer and incubated with […] fluo-3 dye at 37° C. for one hr. The dye was then removed by plate washing and the cells were allowed to equilibrate for 20 min at room temperature with antagonist or vehicle (FLIPR buffer). Agonist (100 μM BzATP final concentration for hP2X7; 5 μM BzATP final concentration or rP2X7) was added online with the FLIPR and fluorescence measurements made at 1 sec intervals for 60 sec followed by 3 sec intervals for a further 4 min (5 min total). A final addition of 5 μM ionomycin was made and the maximal BzATP-evoked fluorescence normalized to the maximal ionomycin-evoked fluorescence.

Row | Compound | pKi
1 | Cc1ccc(OC(F)(F)F)cc1NC(=O)C1=CNC(=O)C[C@H]1c1ccc(F)cc1 [Compound 99, (S)-4-(4-Fluoro-phenyl)-6-oxo-1,4,5,6-tetrahydro-pyridine-3-carboxylic acid(2-methyl-5-trifluoromethoxy-phenyl)-amide] | 6.755
2 | CCc1c(NC(=O)C2=CNC(=O)CC2c2ccc(F)cc2)cccc1OC (stereo not shown) [Compound 102, 4-(4-Fluoro-phenyl)-6-oxo-1,4,5,6-tetrahydro-pyridine-3-carboxylic acid(2-ethyl-3-methoxy-phenyl)-amide] | 7.316
3 | COc1cc(Br)c(NC(=O)C2=CNC(=O)C[C@H]2c2cccc(F)c2)cc1OC [Compound 30, (S)-4-(3-Fluoro-phenyl)-6-oxo-1,4,5,6-tetrahydro-pyridine-3-carboxylic acid(2-bromo-4,5-dimethoxy-phenyl)-amide] | 8.045
4 | Cc1cc(Cl)c(OCCO)cc1NC(=O)C1=CNC(=O)C[C@H]1c1ccc(F)cc1 [Compound 73, (S)-4-(4-Fluoro-phenyl)-6-oxo-1,4,5,6-tetrahydro-pyridine-3-carboxylic acid[4-chloro-5-(2-hydroxy-ethoxy)-2-methyl-phenyl]-amide] | 7.63
5 | O=C1CC(c2cccc(F)c2)C(C(=O)Nc2c(F)cc(F)cc2Cl)=CN1 (stereo not shown) [Compound 28, 4-(3-Fluoro-phenyl)-6-oxo-1,4,5,6-tetrahydro-pyridine-3-carboxylic acid(2-chloro-4,6-difluoro-phenyl)-amide] | 5.215
6 | Cc1cc(C)c(Br)c(NC(=O)C2=CNC(=O)C[C@H]2c2ccc(F)cc2)c1 [Compound 60, (S)-4-(4-Fluoro-phenyl)-6-oxo-1,4,5,6-tetrahydro-pyridine-3-carboxylic acid(2-bromo-3,5-dimethyl-phenyl)-amide] | 6.86
7 | Cc1ccc(C)c(NC(=O)C2=CNC(=O)CC2c2ccc(F)cc2)c1 (stereo not shown) [Compound 36, 4-(4-Fluoro-phenyl)-6-oxo-1,4,5,6-tetrahydro-pyridine-3-carboxylic acid(2,5-dimethyl-phenyl)-amide] | 6.93
8 | COc1ccc(C)c(NC(=O)C2=CNC(=O)C[C@@H]2c2cccc(F)c2)c1 [Compound 45, (R)-4-(3-Fluoro-phenyl)-6-oxo-1,4,5,6-tetrahydro-pyridine-3-carboxylic acid(5-methoxy-2-methyl-phenyl)-amide] | 6.765
9 | COc1cc(C)c(NC(=O)C2=CNC(=O)C[C@@H]2c2ccc(Cl)cc2)cc1OC [Compound 132, (R)-4-(4-Chloro-phenyl)-6-oxo-1,4,5,6-tetrahydro-pyridine-3-carboxylic acid (4,5-dimethoxy-2-methyl-phenyl)-amide] | 6.38
10 | COc1cc(NC(=O)C2=CNC(=O)CC2c2ccc(F)cc2)c(C)cc1F (stereo not shown) [Compound 54, 4-(4-Fluoro-phenyl)-6-oxo-1,4,5,6-tetrahydro-pyridine-3-carboxylic acid(4-fluoro-5-methoxy-2-methyl-phenyl)-amide] | 7.02
11 | Cc1ccccc1CNC(=O)C1=CNC(=O)C[C@H]1c1cccc(F)c1 [Compound 83, (S)-4-(3-Fluoro-phenyl)-6-oxo-1,4,5,6-tetrahydro-pyridine-3-carboxylic acid 2-methyl-benzylamide] | 6.17
12 | CCN(CC)S(=O)(=O)c1ccc(Cl)c(NC(=O)C2=CNC(=O)CC2c2cccc(F)c2)c1 (stereo not shown) [Compound 52, 4-(3-Fluoro-phenyl)-6-oxo-1,4,5,6-tetrahydro-pyridine-3-carboxylic acid(2-chloro-5-diethylsulfamoyl-phenyl)-amide] | 6.02
13 | O=C1C[C@@H](c2cccc(F)c2)C(C(=O)Nc2cc(OCCO)c(Cl)cc2Br)=CN1 [Compound 78, (S)-4-(3-Fluoro-phenyl)-6-oxo-1,4,5,6-tetrahydro-pyridine-3-carboxylic acid[2-bromo-4-chloro-5-(2-hydroxy-ethoxy)-phenyl]-amide] | 7.695
14 | Cc1cc(F)c(OCCO)cc1NC(=O)C1=CNC(=O)C[C@H]1c1ccc(F)cc1 [Compound 141, (S)-4-(4-Fluoro-phenyl)-6-oxo-1,4,5,6-tetrahydro-pyridine-3-carboxylic acid[4-fluoro-5-(2-hydroxy-ethoxy)-2-methyl-phenyl]-amide] | 7.285
15 | COc1cccc(NC(=O)C2=CNC(=O)C[C@H]2c2ccc(F)cc2)c1C [Compound 106, (S)-4-(4-Fluoro-phenyl)-6-oxo-1,4,5,6-tetrahydro-pyridine-3-carboxylic acid(3-methoxy-2-methyl-phenyl)-amide] | 7.375
16 | Cc1cc(Cl)c(OCCO)cc1NC(=O)C1=CNC(=O)C[C@@H]1c1cccc(F)c1 [Compound 71, (R)-4-(3-Fluoro-phenyl)-6-oxo-1,4,5,6-tetrahydro-pyridine-3-carboxylic acid[4-chloro-5-(2-hydroxy-ethoxy)-2-methyl-phenyl]-amide] | 6.815
17 | COc1cc(NC(=O)C2=CNC(=O)CC2c2ccccc2)c(Br)cc1Cl (stereo not shown) [Compound 3, 6-Oxo-4-phenyl-1,4,5,6-tetrahydro-pyridine-3-carboxylic acid(2-bromo-4-chloro-5-methoxy-phenyl)-] | 5.95
18 | Cc1ccc([C@@H](C)O)cc1NC(=O)C1=CNC(=O)C[C@H]1c1ccc(F)cc1 [Compound 89, (S)-4-(4-Fluoro-phenyl)-6-oxo-1,4,5,6-tetrahydro-pyridine-3-carboxylic acid[5-((R)-1-hydroxy-ethyl)-2-methyl-phenyl]-amide] | 7.443
19 | COc1cc(C)c(NC(=O)C2=CNC(=O)C[C@H]2c2ccc(F)cc2)cc1OC [Compound 42, (S)-4-(4-Fluoro-phenyl)-6-oxo-1,4,5,6-tetrahydro-pyridine-3-carboxylic acid (4,5-dimethoxy-2-methyl-phenyl)-amide] | 7.993
20 | COc1cc(C)c(C)c(NC(=O)C2=CNC(=O)C[C@H]2c2ccc(F)cc2)c1 [Compound 113, (S)-4-(4-Fluoro-phenyl)-6-oxo-1,4,5,6-tetrahydro-pyridine-3-carboxylic acid(5-methoxy-2,3-dimethyl-phenyl)-amide] | 8.035
21 | Cc1cc(Cl)c(NC(=O)C2=CNC(=O)C[C@H]2c2ccc(F)cc2)cc1OCCO [Compound 129, (S)-4-(4-Fluoro-phenyl)-6-oxo-1,4,5,6-tetrahydro-pyridine-3-carboxylic acid[2-chloro-5-(2-hydroxy-ethoxy)-4-methyl-phenyl]-amide] | 7.265
22 | Cc1ccc(Br)c(NC(=O)C2=CNC(=O)CC2c2ccc(F)cc2)c1 (stereo not shown) [Compound 38, 4-(4-Fluoro-phenyl)-6-oxo-1,4,5,6-tetrahydro-pyridine-3-carboxylic acid(2-bromo-5-methyl-phenyl)-amide] | 6.87
23 | Cc1cc(Cl)c(CN(CCO)CCO)cc1NC(=O)C1=CNC(=O)C[C@H]1c1ccc(F)cc1 [Compound 124, (S)-4-(4-Fluoro-phenyl)-6-oxo-1,4,5,6-tetrahydro-pyridine-3-carboxylic acid(5-{[bis-(2-hydroxy-ethyl)-amino]-methyl}-4-chloro-2-methyl-phenyl)-amide] | 6.75
24 | Cc1ccc(NC(=O)C2=CNC(=O)C[C@H]2c2cccc(F)c2)cc1C(C)O (stereo partly drawn) [Compound 120, (S)-4-(3-Fluoro-phenyl)-6-oxo-1,4,5,6-tetrahydro-pyridine-3-carboxylic acid[3-(1-hydroxy-ethyl)-4-methyl-phenyl]-amide] | 6.635
25 | COc1ccc(NC(=O)C2=CNC(=O)C[C@H]2c2ccc(F)cc2)c(C)c1 [Compound 111, (S)-4-(4-Fluoro-phenyl)-6-oxo-1,4,5,6-tetrahydro-pyridine-3-carboxylic acid(4-methoxy-2-methyl-phenyl)-amide] | 6.5
